The values that follow come from patent US20170281676A1, “HIV-CURE” (Lupus Foundation of Gainesville, priority 2016, published 2017).

Where two headings read alike, the source gives them in different places.

Data set [1] relates to peripheral blood lymphocytes. The settings on record: concentrations 300-790 mg/dl; cited from earlier work.
The conditions of data set [2]: in vivo; cited from earlier work.
Data set [3] deals with HIV. The settings on record: HIV-positive person, 2 years after discharge; earlier viral load 60,000 copies per ml; never on antiretroviral medication. The source says:
(§1) A person was brought to the emergency room by ambulance. The inventor was called to intubate for respiratory support. […] They were intubated with propofol and admitted to ICU. […] During the ICU stay, they were maintained in coma with propofol infusions and some opioid analgesics and muscle paralyzers, intubated and mechanically ventilated. Fluids given were mostly Ringer's lactate and dextrose 5% in water. Due to lack of history, the ICU staff assumed they were a chronic alcoholic. […] So, they treated the patient with ethanol infusion, trying to decrease the level slowly over days.

For data set [4] the following is noted: human, in vivo.
Text: as §1

For data set [5] the following is noted: in vivo; cited from earlier work. The source holds these as a separate data set.
Data set [6] deals with HIV virus. The settings on record: surfaces, 70% v/v ethanol, cited from earlier work.
For data set [7] the following is noted: human, in vivo. This is another data set of the same source.
The test system of data set [8] is Feline Immunodeficiency Virus (FIV). The settings on record: by denaturing their molecules; cited from earlier work.
Data set [9] deals with HIV virus. The settings on record: cited from earlier work.
For data set [10], the system named is HIV. The settings on record: by denaturing their molecules; cited from earlier work.
The conditions of data set [11]: in vivo; cited from earlier work. This is another data set of the same source.
For data set [12], the system named is human macrophage hybridoma cell line and primary monocytes. The settings on record: ethanol equivalent to 115, 345 and 690 mg/dl, 16 hours, then infected with HIV-1; cited from earlier work.
Data set [13] has as its system HIV-1. The settings on record: cited from earlier work.
Data set [14] relates to bloodstream catheter-related infections. The settings on record: injected preventively in central venous catheters; cited from earlier work.
Data set [15] relates to primary human brain microvascular endothelial cells. The settings on record: concentrations equivalent to 79 mg/dl and 237 mg/dl; cited from earlier work.
For data set [16] the following is noted: water, alcohol, and organic solvents; cited from earlier work.
The conditions of data set [17]: humans exposed in workplace; cited from earlier work.
For data set [18] the following is noted: mice, cited from earlier work.
The conditions of data set [19]: monkeys, 100 ppm for 2 years; cited from earlier work.
For data set [20] the following is noted: in vivo; cited from earlier work. The source holds these as a separate data set.
For data set [21] the following is noted: most animal species; cited from earlier work.

As to `CCO` [ethanol], the “HIV DNA in peripheral blood lymphocytes and their proliferation” value in [1] was “increase”. Also, in data set [2], the “factor between breath and blood concentrations” value is “around 2300”; the “rise of serum concentration after loading dose” value is on record as “about 100 mg/dL”. Besides, in data set [3], the HIV viral load entry is on record as “undetectable”. Further, in data set [4], the permanent organ damage result was “without causing any permanent organ damage”. Besides, the “blood level at usual starting of a comatose state” value in data set [5] was 400 mg/dL. In data set [6] (in some conditions, up to), the “time of contact needed for the inactivation of HIV virus” value was “up to 4 minutes”. Moreover, the “time of contact needed for the inactivation of HIV virus” value in [6] was 2 min. The “time to reach a level below 100 mg/dl” value in [7] was in the range of 16 to 20 h. For the same compound, the “inactivation of FIV in vitro” value in data set [8] is listed as “inactivate”. Besides, the “damage to the product” value in data set [9] (human albumin and plasma products at 18,000 mg/dl and higher) is listed as “no damage to the product was caused”. For the same compound, the “concentration used for in vitro inactivation of HIV virus” value in [9] (human albumin and plasma products, and even higher) was ≥ 18,000 mg/dl. Further, in data set [10], the “inactivation of HIV in vitro” value is “inactivate”. Further, the placental penetration entry in data set [11] is reported as “penetrates well the placenta”. In addition, the “effects in the immunogenic tests of the cells” value in data set [12] is “immunosuppressive effects”. In addition, in data set [13] (ethanol tested at 115, 345 and 690 mg/dl), the “HIV-1 replication, another study” value is listed as “same results”. For the same compound, in data set [13] (human peripheral blood mononuclear cells, levels at the range of 400 mg/dl or less), the HIV-1 replication result was “increase the HIV-1 replication”. Besides, the “risk of bloodstream catheter-related infections” value in data set [14] is given as “decrease the risk”. In addition, in data set [15], the “apoptosis induced by HIV-1 proteins” value is “strongly potentiate”.
Consider `OCCO` [ethylene glycol], for which the “inactivation of FIV in vitro” value in [8] was “inactivate”. Also, the “inactivation of HIV in vitro” value in [10] is “inactivate”.
As for `C1CO1` [ethylene oxide], the solubility entry in [16] is recorded as “dissolves easily”. Further, the mortality result is recorded as “no increase in mortality” in data set [17]; “did not have increased mortality” in [18] (100 ppm for 2 years); “no death” in data set [18] (exposure to 400 ppm for 14 days); “deadly in 4 hours” in [18] (higher levels like 800 ppm); “did not have increased mortality” in data set [19].
With `CC(C)O` [isopropanol], the serum elimination half-life in data set [20] was 2.5 to 8 h. For the same compound, the “inactivation of FIV in vitro” value in data set [8] was “inactivate”. Moreover, the “inactivation of HIV in vitro” value in [10] is reported as “inactivate”. For the same compound, in [21], the median lethal dose was 4000 mg/kg.
`CO` [methanol]: the “inactivation of FIV in vitro” value in [8] is on record as “inactivate”. Also, the “inactivation of HIV in vitro” value in data set [10] is listed as “inactivate”.
